Results on 7 molecules are retold here after ChEMBL document CHEMBL1145379 (J Med Chem, 2007).

The nature of data set [1]: Distribution coefficient, log D at pH 7.4. As to conditions: octanol/water. The data set is classed as physicochemical.
In data set [2] the target is Coagulation factor X (Homo sapiens, UniProt P00742). In words: Inhibition of human F10a. Particulars: read-out: Ki app.
Data set [3] deals with Prothrombin (Homo sapiens, UniProt P00734). In words: Inhibition of human F2a. Particulars: read-out: Ki app.
Data set [4] has as its system Plasma. Kind of data set: Anticoagulant potency in human plasma assessed as concentration for doubling of prothrombin time. The data set is classed as functional.
Data set [5] is described as follows: Volume of distribution at steady state in Beagle dog at 1 mg/kg, iv. The data set is classed as ADME, organism-based, Canis lupus familiaris. Further details: dose 1 mg/kg, route intravenous. As to conditions: in vivo, read-out: Vss.
Data set [6] can be described thus: Clearance in Beagle dog at 1 mg/kg, iv. It is filed as ADME, organism-based, Canis lupus familiaris. Further details: dose 1 mg/kg, route intravenous. As to conditions: in vivo.
The nature of data set [7]: Bioavailability in Beagle dog at 10 mg/kg, po normalized to 1 mg/kg, iv. It is filed as ADME, organism-based, Canis lupus familiaris. As to conditions: in vivo.
Data set [8] in a line: Half life in Beagle dog at 1 mg/kg, iv. The data set is classed as ADME, organism-based, Canis lupus familiaris. Further details: dose 1 mg/kg, route intravenous. As to conditions: in vivo.
Data set [9] is described as follows: Cmax in Beagle dog at 10 mg/kg, po. It is filed as ADME, organism-based, Canis lupus familiaris. Further details: dose 10 mg/kg, route oral. As to conditions: in vivo.
Data set [10] has as its target T1, Cathepsin G (Homo sapiens, UniProt P08311).
T1 sequence (P08311 whole entry): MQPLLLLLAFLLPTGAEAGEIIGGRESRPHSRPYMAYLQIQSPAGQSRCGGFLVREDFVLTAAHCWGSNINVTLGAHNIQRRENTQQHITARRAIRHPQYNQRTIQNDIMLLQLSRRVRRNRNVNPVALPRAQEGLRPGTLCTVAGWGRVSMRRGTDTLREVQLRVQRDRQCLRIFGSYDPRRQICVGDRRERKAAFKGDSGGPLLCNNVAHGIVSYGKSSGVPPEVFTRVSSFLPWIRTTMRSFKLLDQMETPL
In words: Inhibition of human cathepsin G.

Data set [11] has as its system Plasma. In words: Anticoagulant potency in dog plasma assessed as concentration for doubling of prothrombin time. It is filed as functional, Canis lupus familiaris.
For data set [12], the target named is Plasma kallikrein (Homo sapiens, UniProt P03952). Kind of data set: Inhibition of human kallikrein.
Chain of Plasma kallikrein (P03952 20-390 limits assumed): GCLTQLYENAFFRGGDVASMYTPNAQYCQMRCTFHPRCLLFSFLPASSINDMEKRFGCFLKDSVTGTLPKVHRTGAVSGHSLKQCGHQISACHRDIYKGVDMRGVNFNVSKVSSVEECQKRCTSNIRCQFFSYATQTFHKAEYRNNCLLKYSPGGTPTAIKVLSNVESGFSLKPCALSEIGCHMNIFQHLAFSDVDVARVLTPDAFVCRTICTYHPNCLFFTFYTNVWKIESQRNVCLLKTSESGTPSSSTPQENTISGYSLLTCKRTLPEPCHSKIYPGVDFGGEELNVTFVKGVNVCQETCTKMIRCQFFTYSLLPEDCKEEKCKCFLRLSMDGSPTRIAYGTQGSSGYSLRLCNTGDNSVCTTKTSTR
Chain of Plasma kallikrein (P03952 391-638 limits assumed): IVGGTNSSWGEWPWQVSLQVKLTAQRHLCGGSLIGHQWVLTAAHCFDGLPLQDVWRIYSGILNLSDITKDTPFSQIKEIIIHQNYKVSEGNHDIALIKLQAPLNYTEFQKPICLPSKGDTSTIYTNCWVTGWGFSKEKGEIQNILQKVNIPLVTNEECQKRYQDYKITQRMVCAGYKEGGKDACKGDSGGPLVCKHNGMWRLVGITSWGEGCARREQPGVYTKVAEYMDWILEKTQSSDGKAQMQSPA
The subject of data set [13] is Rattus norvegicus. Kind of data set: Inhibition of thrombosis in iv dosed Wistar rat vena cava stasis model. The data set is classed as functional, organism-based.
For data set [14], the target named is Urokinase-type plasminogen activator (Homo sapiens, UniProt P00749). Kind of data set: Inhibition of human urokinase.
Data set [15] relates to Plasma. Kind of data set: Anticoagulant potency in rat plasma assessed as concentration for doubling of prothrombin time. The data set is classed as functional.
The nature of data set [16]: Inhibition of human chymotrypsin.
The target of data set [17] is Coagulation factor X (Rattus norvegicus, UniProt Q63207). Kind of data set: Inhibition of rat F10a.
Chain of Coagulation factor X (Rattus norvegicus, UniProt Q63207) (Q63207 41-180 limits assumed): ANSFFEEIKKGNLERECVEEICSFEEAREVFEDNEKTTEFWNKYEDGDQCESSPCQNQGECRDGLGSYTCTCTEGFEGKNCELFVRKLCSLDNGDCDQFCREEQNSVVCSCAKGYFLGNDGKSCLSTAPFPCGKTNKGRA
Chain of Coagulation factor X (Rattus norvegicus, UniProt Q63207) (Q63207 232-482 limits assumed): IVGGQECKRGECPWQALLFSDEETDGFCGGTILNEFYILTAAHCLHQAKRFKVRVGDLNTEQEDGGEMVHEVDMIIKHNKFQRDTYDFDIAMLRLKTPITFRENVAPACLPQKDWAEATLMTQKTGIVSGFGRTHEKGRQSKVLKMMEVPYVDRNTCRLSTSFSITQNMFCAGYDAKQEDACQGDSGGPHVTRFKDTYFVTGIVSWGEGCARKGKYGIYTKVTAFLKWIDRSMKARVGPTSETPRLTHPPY
Data set [18] deals with T2, Neutrophil elastase (Homo sapiens, UniProt P08246).
T2 sequence (P08246 whole entry): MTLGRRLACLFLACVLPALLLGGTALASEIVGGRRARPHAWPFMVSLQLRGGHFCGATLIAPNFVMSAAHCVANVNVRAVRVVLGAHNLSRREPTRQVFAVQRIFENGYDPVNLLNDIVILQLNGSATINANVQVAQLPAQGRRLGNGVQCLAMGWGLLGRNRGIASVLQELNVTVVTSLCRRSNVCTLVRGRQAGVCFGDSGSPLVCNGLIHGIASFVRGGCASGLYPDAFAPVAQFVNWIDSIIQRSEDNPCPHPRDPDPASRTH
In words: Inhibition of human neutrophil elastase.

Data set [19] can be described thus: Inhibition of dog F10a. Further details: species or system Canis lupus familiaris.
Data set [20] addresses Trypsin (Homo sapiens, UniProt P07477+P07478+P35030). Kind of data set: Inhibition of human trypsin. It is filed as protein assay.
Data set [21] concerns the target Coagulation factor XI (Homo sapiens, UniProt P03951). Kind of data set: Inhibition of human F11a.
Data set [22] has as its target Tissue-type plasminogen activator (Homo sapiens, UniProt P00750). Kind of data set: Inhibition of human tPA.
Data set [23] has as its target Plasminogen (Homo sapiens, UniProt P00747). In words: Inhibition of human plasmin.
Data set [24] concerns Canis familiaris. In words: Ex vivo anticoagulant potency in dog assessed as prolongation of prothrombin time at 10 mg/kg, po after 2 hrs. It is filed as functional, Canis lupus familiaris.
The subject of data set [25] is Canis familiaris. In words: Ex vivo anticoagulant potency in dog assessed as prolongation of prothrombin time at 10 mg/kg, po after 1 hr. It is filed as functional, Canis lupus familiaris.
The subject of data set [26] is Canis familiaris. Kind of data set: Ex vivo anticoagulant potency in dog assessed as prolongation of prothrombin time at 10 mg/kg, po after 6 hrs. It is filed as functional, Canis lupus familiaris.

Chain of Tissue-type plasminogen activator (P00750 whole entry): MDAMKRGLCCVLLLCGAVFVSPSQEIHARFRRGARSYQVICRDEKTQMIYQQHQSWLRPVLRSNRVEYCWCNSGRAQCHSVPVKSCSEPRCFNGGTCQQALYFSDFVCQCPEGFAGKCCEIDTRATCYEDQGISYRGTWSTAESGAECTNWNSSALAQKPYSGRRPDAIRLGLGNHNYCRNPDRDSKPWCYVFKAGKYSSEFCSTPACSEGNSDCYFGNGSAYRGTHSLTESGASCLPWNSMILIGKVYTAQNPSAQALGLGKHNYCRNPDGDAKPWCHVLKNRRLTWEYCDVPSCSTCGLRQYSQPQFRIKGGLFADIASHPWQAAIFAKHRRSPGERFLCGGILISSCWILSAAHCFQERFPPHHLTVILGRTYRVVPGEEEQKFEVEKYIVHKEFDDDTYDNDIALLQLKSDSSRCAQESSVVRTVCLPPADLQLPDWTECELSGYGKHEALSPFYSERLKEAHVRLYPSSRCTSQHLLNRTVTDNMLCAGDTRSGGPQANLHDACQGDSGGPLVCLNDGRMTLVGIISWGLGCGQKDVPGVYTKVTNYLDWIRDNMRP
Chain of Plasminogen (P00747 97-580 limits assumed): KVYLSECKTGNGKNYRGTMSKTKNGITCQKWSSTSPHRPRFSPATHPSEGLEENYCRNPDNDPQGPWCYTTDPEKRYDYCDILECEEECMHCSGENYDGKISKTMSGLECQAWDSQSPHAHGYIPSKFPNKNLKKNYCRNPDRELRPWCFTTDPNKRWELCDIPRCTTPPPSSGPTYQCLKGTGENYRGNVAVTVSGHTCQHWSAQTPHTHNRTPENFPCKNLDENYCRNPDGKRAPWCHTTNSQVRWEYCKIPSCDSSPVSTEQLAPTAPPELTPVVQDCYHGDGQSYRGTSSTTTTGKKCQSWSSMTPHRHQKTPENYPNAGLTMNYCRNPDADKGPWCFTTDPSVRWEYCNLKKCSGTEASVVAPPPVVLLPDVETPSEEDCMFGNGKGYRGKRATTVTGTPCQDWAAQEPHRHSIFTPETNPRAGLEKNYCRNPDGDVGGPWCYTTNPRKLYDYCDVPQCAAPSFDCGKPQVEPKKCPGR
Chain of Plasminogen (P00747 581-810 limits assumed): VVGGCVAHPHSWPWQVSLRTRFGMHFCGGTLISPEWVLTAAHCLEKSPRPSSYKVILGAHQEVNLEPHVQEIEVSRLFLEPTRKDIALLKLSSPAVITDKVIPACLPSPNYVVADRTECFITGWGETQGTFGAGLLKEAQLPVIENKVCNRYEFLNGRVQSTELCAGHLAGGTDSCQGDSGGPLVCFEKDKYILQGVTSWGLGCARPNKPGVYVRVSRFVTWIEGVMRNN
Chain of Coagulation factor X (Homo sapiens, UniProt P00742) (P00742 41-179 limits assumed): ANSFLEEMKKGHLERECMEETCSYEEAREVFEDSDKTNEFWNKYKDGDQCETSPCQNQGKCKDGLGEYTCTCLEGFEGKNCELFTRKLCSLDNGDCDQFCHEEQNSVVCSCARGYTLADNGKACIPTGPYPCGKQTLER
Chain of Coagulation factor X (Homo sapiens, UniProt P00742) (P00742 235-488 limits assumed): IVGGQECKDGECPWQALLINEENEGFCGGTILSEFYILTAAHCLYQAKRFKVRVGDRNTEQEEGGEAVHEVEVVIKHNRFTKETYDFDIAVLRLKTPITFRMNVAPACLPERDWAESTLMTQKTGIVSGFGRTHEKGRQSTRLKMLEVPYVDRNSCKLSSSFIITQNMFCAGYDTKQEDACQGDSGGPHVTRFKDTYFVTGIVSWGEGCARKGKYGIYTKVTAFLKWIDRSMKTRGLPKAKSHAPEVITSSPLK
Chain of Coagulation factor XI (P03951 19-387 limits assumed): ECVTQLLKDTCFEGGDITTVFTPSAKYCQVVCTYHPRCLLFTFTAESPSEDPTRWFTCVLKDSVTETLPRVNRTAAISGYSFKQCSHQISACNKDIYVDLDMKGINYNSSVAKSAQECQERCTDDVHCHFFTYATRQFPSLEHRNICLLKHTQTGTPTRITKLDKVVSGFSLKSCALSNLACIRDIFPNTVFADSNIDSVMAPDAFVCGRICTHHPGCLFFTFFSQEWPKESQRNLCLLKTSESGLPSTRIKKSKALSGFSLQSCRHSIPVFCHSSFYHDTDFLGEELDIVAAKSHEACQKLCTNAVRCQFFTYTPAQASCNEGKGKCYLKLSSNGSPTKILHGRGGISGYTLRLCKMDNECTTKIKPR
Chain of Coagulation factor XI (P03951 388-625 limits assumed): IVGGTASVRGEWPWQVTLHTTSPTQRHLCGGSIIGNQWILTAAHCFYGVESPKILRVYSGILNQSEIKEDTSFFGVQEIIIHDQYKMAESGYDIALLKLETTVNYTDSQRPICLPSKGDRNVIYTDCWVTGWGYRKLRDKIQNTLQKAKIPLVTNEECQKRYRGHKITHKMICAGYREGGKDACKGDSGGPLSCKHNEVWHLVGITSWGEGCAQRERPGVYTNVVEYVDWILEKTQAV

As usually defined, the logD is the decadic logarithm of the distribution of all forms, ionised or not, between an organic phase and buffer at a given pH. Low readings indicate lower lipophilicity, high ones higher lipophilicity. `CN1CCN(Cc2csc(C(=O)Nc3ccc(Cl)cc3C(=O)Nc3ccc(Cl)cc3)c2Cl)CC1` registered a log distribution coefficient (logD) in [1] of 2.96. Moreover, the Ki in data set [2] worked out at 0.76 nM; in data set [3], 840 nM. The Activity in data set [4] was determined as 12 µM.

For `CN1CCN(Cc2csc(C(=O)Nc3ccc(Cl)cc3C(=O)Nc3ccc(Cl)cn3)c2Cl)CC1`, the logD in data set [1] was determined as 3.11. Moreover, the Ki in [2] is 0.36 nM; in [3], 680 nM. Also, the Activity in data set [4] came to 6.9 µM.

In general, clearance refers to the rate of elimination divided by the concentration. For orientation: bioavailability means the share of a dose that reaches the circulation, judged against a reference dose that is usually intravenous. Read a high bioavailability as much systemic uptake. What is called half-life is the time in which the quantity being followed falls by half. A low value points to fast loss. The term Cmax denotes the peak of the concentration-time curve. Consider `COc1cc(Cl)cc(C(=O)Nc2ccc(Cl)cn2)c1NC(=O)c1scc(CN(C)CCO)c1Cl`, for which, in data set [5], the Vd was 4.4 L/kg. In addition, the Ki in data set [2] came out at 0.24 nM; in [3], 1400 nM. In addition, the clearance in data set [6] worked out at 27 mL/min/kg. The molecule also showed a bioavailability in [7] of over 100%. Moreover, the half-life in data set [8] is 2.1 h. For the same molecule, in [4], the Activity was found to be 1.6 µM. The molecule also showed a Cmax in data set [9] of 1200 ng/mL.

For `CNCc1csc(C(=O)Nc2c(OC)cc(Cl)cc2C(=O)Nc2ccc(Cl)cn2)c1Cl`, the Ki is over 10000 nM in data set [10]; 1000 nM in [12]; over 5000 nM in data set [14]; over 10000 nM in data set [16]; 2.5 nM in data set [17]; 10000 nM in data set [18]. Further, the Ki was 0.21 nM in data set [2]; 1.7 nM in data set [19]; 3700 nM in data set [3]; over 10000 nM in data set [20]; over 10000 nM in data set [21]; over 5000 nM in [22]. The molecule further had a Ki in [23] of over 10000 nM. Also, the Activity in data set [11] was 4.35 µM; in [13] it was “Dose-dependent effect”; in data set [15], 7.3 µM; in data set [4], 1.6 µM. Also, the Vd in [5] was found to be 1.4 L/kg. This molecule also yielded a clearance in data set [6] of 1.6 mL/min/kg. Also, in [7], the bioavailability was 75%. The same molecule showed a half-life in data set [8] of 10.5 h. Also, the highest level in [9] (Cmax) was 5100 ng/mL.

`COc1cc(Cl)cc(C(=O)Nc2ccc(Cl)cn2)c1NC(=O)c1scc(CN2CCN(C)CC2)c1Cl` displayed a logD in data set [1] of 2.75. In addition, the figures for the Ki in data set [2] and in [3] were 0.16 nM and 1500 nM, respectively. Further, the Activity in data set [4] was found to be 1.6 µM.

`COc1cc(Cl)cc(C(=O)Nc2ccc(Cl)cn2)c1NC(=O)c1scc(CN(C)C2=NCCO2)c1Cl`: the Ki in data set [10] was over 10000 nM; in [12], 37 nM; in [14] it was over 5000 nM; in data set [16], over 10000 nM; in data set [17] it was 0.29 nM; in data set [18] it was over 10000 nM. Further, the Ki was 0.007 nM in data set [2]; 0.15 nM in data set [19]; 90 nM in data set [3]; over 10000 nM in [20]; over 10000 nM in data set [21]; over 5000 nM in data set [22]. In addition, the Ki in [23] is over 10000 nM. Further, the Activity was 0.35 µM in data set [11], 93 µM in data set [15] and 0.36 µM in data set [4]. Moreover, in data set [5], the Vd stood at 1.6 L/kg. In addition, the values for the Fold change in data set [24], in [25] and in [26] were 5, 3.2 and 4, respectively. For the same molecule, the clearance in [6] was 5.8 mL/min/kg. The bioavailability in data set [7] came out at 56%. This molecule had a half-life in data set [8] of 3.2 h. For the same molecule, the Cmax in data set [9] came out at 1900 ng/mL.

In the case of `CNc1nccn1Cc1csc(C(=O)Nc2c(OC)cc(Cl)cc2C(=O)Nc2ccc(Cl)cn2)c1Cl`, the Ki in [10] is over 5000 nM; in [12], 45 nM; in data set [14] it was over 5000 nM; in [16] it was over 5000 nM; in data set [17], 0.06 nM; in data set [18] it was over 5000 nM. For the same molecule, the Ki was 0.31 nM in [19]; 990 nM in data set [3]; over 5000 nM in data set [20]; over 5000 nM in [21]; over 5000 nM in data set [22]; over 5000 nM in data set [23]. The Activity was 4.2 µM in [11], “Dose-dependent effect” in data set [13], 2.56 µM in data set [15] and 1.2 µM in [4]. In data set [5], the Vd was found to be 1 L/kg. The molecule also yielded a clearance in [6] of 4.4 mL/min/kg. The molecule further showed a bioavailability in [7] of 98%. The half-life in data set [8] is 3.4 h. In [9], this molecule displayed a Cmax of 3700 ng/mL.
